Legend:
[1] = system: patients of phase 1 and phase 2 trials; test: Phase 1/2 pooled TRAEs with or without previous immunotherapy; assay type: in vivo, human
Experimental: Treatment-emergent adverse events (TEAEs) were documented during the entire study period. The predefined adverse event of special interest (AESI) was ≥ grade 3 prolonged QT interval. Tumor imaging was performed using contrast-enhanced computed tomography or magnetic resonance imaging at screening, Day 28 of the first cycle, then approximately every eight weeks till the end of the study for phase 1; in phase 2, imaging was scheduled at screening, and every eight weeks during the first 40 weeks, followed by every 12 weeks for the rest of the study period. RECIST 1.1 was used by the independent review committee or investigators for assessment of tumor response. After the original assessment, a repeated assessment was required around four weeks later to confirm a complete or partial response.
The full analysis set consisted of all patients who had administered at least one dose of HA121-28 and was used to calculate the baseline characteristics, OS, and PFS results. The safety set included all patients who had administered at least one dose of the HA121-28 and had at least one safety-related observation. This population was used for analysis of TEAEs. The efficacy evaluable set consisted of patients who had administered at least one dose of HA121-28 and completed at least one efficacy assessment following study treatment. This population was used to calculate the ORR, DOR, and DCR. In addition, the ORRs for subgroup analyses, including age ( < 60, ≥60), ECOG PS (0 or 1), gender (male or female), prior treatment with TKIs (yes or no), brain or liver metastasis (yes or no), were also calculated. The plasma drug concentration-time profile was characterized using PK concentration set that included patients who had administered at least one dose of HA121-28 and had at least one measurable plasma concentration of HA121-28. The PK parameter set was used to calculate PK parameters, which consisted of patients who had administered at least one dose of HA121-28 with at least one valid PK parameter. ORR and DCR were described using the Clopper-Pearson method with two-sided 95% confidence intervals (CIs). PFS and DOR were assessed using the Kaplan-Meier method, including an estimate of the median, along with corresponding 95% CIs. Statistical analyses of clinical outcomes were conducted by SAS (version 9.4 or later) and R software 4.1.0 for genomic DNA from pre-treatment tumor tissue (http://cran.r-project.org).

A498 cells = test: Tumor cell proliferation in vitro; assay type: cell-based
A375 cells = test: Tumor cell proliferation in vitro; assay type: cell-based, human
[2] = Excretion after gastric lavage; assay type: in vivo, rats
[3] = With prior immunotherapy treatment (N=43)
[4] = Without prior immunotherapy treatment (N=165)

COc1cc2c(Nc3ccc(Br)cc3F)ncnc2cc1OCCCCN(C)C.Cl.Cl [HA121-28, N-(4-bromo-2-fluorophenyl)-7-(4-(dimethylamino)butoxy)-6-methoxy quinazolin-4-amine dihydrochloride]
incidence of ≥ grade-3 TRAE ([1]; 43 patients with previous immunotherapy): 58.1%
incidence of ≥ grade-3 TRAE ([1]; 165 patients without previous immunotherapy): 41.2%
TRAE, All: ALT increased [1, 3]: 22 (51.2) count (percentage)
TRAE, All: AST increased [1, 3]: 19 (44.2) count (percentage)
TRAE, All: Anemia [1, 3]: 5 (11.6) count (percentage)
TRAE, All: Any [1, 3]: 42 (97.7) count (percentage)
TRAE, All: Blood creatinine increased [1, 3]: 11 (25.6) count (percentage)
TRAE, All: Decreased appetite [1, 3]: 7 (16.3) count (percentage)
TRAE, All: Decreased lymphocyte counts [1, 3]: 5 (11.6) count (percentage)
TRAE, All: Diarrhea [1, 3]: 32 (74.4) count (percentage)
TRAE, All: Fatigue [1, 3]: 6 (14.0) count (percentage)
TRAE, All: Hypertension [1, 3]: 5 (11.6) count (percentage)
TRAE, All: Hypoalbuminemia [1, 3]: 5 (11.6) count (percentage)
TRAE, All: Hypokalemia [1, 3]: 9 (20.9) count (percentage)
TRAE, All: Nausea [1, 3]: 6 (14.0) count (percentage)
TRAE, All: Neutrophil counts decreased [1, 3]: 7 (16.3) count (percentage)
TRAE, All: Platelet counts decreased [1, 3]: 7 (16.3) count (percentage)
TRAE, All: Prolonged QT interval [1, 3]: 23 (53.5) count (percentage)
TRAE, All: Proteinuria [1, 3]: 17 (39.5) count (percentage)
TRAE, All: Rash [1, 3]: 31 (72.1) count (percentage)
TRAE, All: Vomiting [1, 3]: 7 (16.3) count (percentage)
TRAE, All: Weight loss [1, 3]: 6 (14.0) count (percentage)
TRAE, All: White blood cell counts decreased [1, 3]: 7 (16.3) count (percentage)
TRAE, ≥ Grade 3: ALT increased [1, 3]: 1 (2.3) count (percentage)
TRAE, ≥ Grade 3: AST increased [1, 3]: 1 (2.3) count (percentage)
TRAE, ≥ Grade 3: Anemia [1, 3]: 0 count (percentage)
TRAE, ≥ Grade 3: Any [1, 3]: 25 (58.1) count (percentage)
TRAE, ≥ Grade 3: Blood creatinine increased [1, 3]: 0 count (percentage)
TRAE, ≥ Grade 3: Decreased appetite [1, 3]: 0 count (percentage)
TRAE, ≥ Grade 3: Decreased lymphocyte counts [1, 3]: 0 count (percentage)
TRAE, ≥ Grade 3: Diarrhea [1, 3]: 4 (9.3) count (percentage)
TRAE, ≥ Grade 3: Fatigue [1, 3]: 0 count (percentage)
TRAE, ≥ Grade 3: Hypertension [1, 3]: 0 count (percentage)
TRAE, ≥ Grade 3: Hypoalbuminemia [1, 3]: 0 count (percentage)
TRAE, ≥ Grade 3: Hypokalemia [1, 3]: 3 (7.0) count (percentage)
TRAE, ≥ Grade 3: Nausea [1, 3]: 0 count (percentage)
TRAE, ≥ Grade 3: Neutrophil counts decreased [1, 3]: 3 (7.0) count (percentage)
TRAE, ≥ Grade 3: Platelet counts decreased [1, 3]: 0 count (percentage)
TRAE, ≥ Grade 3: Prolonged QT interval [1, 3]: 12 (27.9) count (percentage)
TRAE, ≥ Grade 3: Proteinuria [1, 3]: 0 count (percentage)
TRAE, ≥ Grade 3: Rash [1, 3]: 3 (7.0) count (percentage)
TRAE, ≥ Grade 3: Vomiting [1, 3]: 0 count (percentage)
TRAE, ≥ Grade 3: Weight loss [1, 3]: 0 count (percentage)
TRAE, ≥ Grade 3: White blood cell counts decreased [1, 3]: 1 (2.3) count (percentage)
TRAE, All: ALT increased [1, 4]: 52 (31.5) count (percentage)
TRAE, All: AST increased [1, 4]: 52 (31.5) count (percentage)
TRAE, All: Anemia [1, 4]: 14 (8.5) count (percentage)
TRAE, All: Any [1, 4]: 161 (97.6) count (percentage)
TRAE, All: Blood creatinine increased [1, 4]: 33 (20.0) count (percentage)
TRAE, All: Decreased appetite [1, 4]: 25 (15.2) count (percentage)
TRAE, All: Decreased lymphocyte counts [1, 4]: 5 (3.0) count (percentage)
TRAE, All: Diarrhea [1, 4]: 125 (75.8) count (percentage)
TRAE, All: Fatigue [1, 4]: 22 (13.3) count (percentage)
TRAE, All: Hypertension [1, 4]: 22 (13.3) count (percentage)
TRAE, All: Hypoalbuminemia [1, 4]: 20 (12.1) count (percentage)
TRAE, All: Hypokalemia [1, 4]: 26 (15.8) count (percentage)
TRAE, All: Nausea [1, 4]: 37 (22.4) count (percentage)
TRAE, All: Neutrophil counts decreased [1, 4]: 13 (7.9) count (percentage)
TRAE, All: Platelet counts decreased [1, 4]: 12 (7.3) count (percentage)
TRAE, All: Prolonged QT interval [1, 4]: 76 (46.1) count (percentage)
TRAE, All: Proteinuria [1, 4]: 48 (29.1) count (percentage)
TRAE, All: Rash [1, 4]: 88 (53.3) count (percentage)
TRAE, All: Vomiting [1, 4]: 30 (18.2) count (percentage)
TRAE, All: Weight loss [1, 4]: 6 (3.6) count (percentage)
TRAE, All: White blood cell counts decreased [1, 4]: 14 (8.5) count (percentage)
TRAE, ≥ Grade 3: ALT increased [1, 4]: 3 (1.8) count (percentage)
TRAE, ≥ Grade 3: AST increased [1, 4]: 3 (1.8) count (percentage)
TRAE, ≥ Grade 3: Anemia [1, 4]: 1 (0.6) count (percentage)
TRAE, ≥ Grade 3: Any [1, 4]: 68 (41.2) count (percentage)
TRAE, ≥ Grade 3: Blood creatinine increased [1, 4]: 2 (1.2) count (percentage)
TRAE, ≥ Grade 3: Decreased appetite [1, 4]: 4 (2.4) count (percentage)
TRAE, ≥ Grade 3: Decreased lymphocyte counts [1, 4]: 0 count (percentage)
TRAE, ≥ Grade 3: Diarrhea [1, 4]: 12 (7.3) count (percentage)
TRAE, ≥ Grade 3: Fatigue [1, 4]: 0 count (percentage)
TRAE, ≥ Grade 3: Hypertension [1, 4]: 14 (8.5) count (percentage)
TRAE, ≥ Grade 3: Hypoalbuminemia [1, 4]: 1 (0.6) count (percentage)
TRAE, ≥ Grade 3: Hypokalemia [1, 4]: 4 (2.4) count (percentage)
TRAE, ≥ Grade 3: Nausea [1, 4]: 2 (1.2) count (percentage)
TRAE, ≥ Grade 3: Neutrophil counts decreased [1, 4]: 1 (0.6) count (percentage)
TRAE, ≥ Grade 3: Platelet counts decreased [1, 4]: 1 (0.6) count (percentage)
TRAE, ≥ Grade 3: Prolonged QT interval [1, 4]: 26 (15.8) count (percentage)
TRAE, ≥ Grade 3: Proteinuria [1, 4]: 0 count (percentage)
TRAE, ≥ Grade 3: Rash [1, 4]: 7 (4.2) count (percentage)
TRAE, ≥ Grade 3: Vomiting [1, 4]: 2 (1.2) count (percentage)
TRAE, ≥ Grade 3: Weight loss [1, 4]: 0 count (percentage)
TRAE, ≥ Grade 3: White blood cell counts decreased [1, 4]: 2 (1.2) count (percentage)
≥ grade-3 TRAE decreased neutrophil counts ([1]; with previous immunotherapy): 7.0%
≥ grade-3 TRAE hypertension ([1]; with previous immunotherapy): 0%
≥ grade-3 TRAE prolonged QT interval ([1]; with previous immunotherapy): 27.9%
≥ grade-3 TRAE decreased neutrophil counts ([1]; without previous immunotherapy): 0.6%
≥ grade-3 TRAE hypertension ([1]; without previous immunotherapy): 8.5%
≥ grade-3 TRAE prolonged QT interval ([1]; without previous immunotherapy): 15.8%
IC50 (A498 cells): 0.859 ± 0.0179 µM
IC50 (A375 cells): 0.716 ± 0.154 µM
excretion in original form ([2]; bile): 3.91%
excretion in original form ([2]; feces): 27.5%
excretion in original form ([2]; urine): 2.18%
total excretion rate ([2]; urine and feces): 29.7%

From publication PMC11868595, “Safety, pharmacokinetics and efficacy of HA121-28 in patients with advanced solid tumors and RET fusion-positive non-small-cell lung cancer: a multicenter, open-label, single-arm phase 1/2 trial” (Signal Transduction and Targeted Therapy, 2025)
